pIC50: −log10 of the molar value. Where two headings read alike, the source gives them in different places.
How the values were obtained:
Human NPY5 receptor = molecular target: T1, Human NPY5 receptor (Homo sapiens, UniProt Q15761); experiment: Human NPY5 receptor binding assay ([125I]PYY, membrane protein); settings: [125I]PYY binding, read-out: hNPY5 IC50
T1 sequence (Q15761 1-445): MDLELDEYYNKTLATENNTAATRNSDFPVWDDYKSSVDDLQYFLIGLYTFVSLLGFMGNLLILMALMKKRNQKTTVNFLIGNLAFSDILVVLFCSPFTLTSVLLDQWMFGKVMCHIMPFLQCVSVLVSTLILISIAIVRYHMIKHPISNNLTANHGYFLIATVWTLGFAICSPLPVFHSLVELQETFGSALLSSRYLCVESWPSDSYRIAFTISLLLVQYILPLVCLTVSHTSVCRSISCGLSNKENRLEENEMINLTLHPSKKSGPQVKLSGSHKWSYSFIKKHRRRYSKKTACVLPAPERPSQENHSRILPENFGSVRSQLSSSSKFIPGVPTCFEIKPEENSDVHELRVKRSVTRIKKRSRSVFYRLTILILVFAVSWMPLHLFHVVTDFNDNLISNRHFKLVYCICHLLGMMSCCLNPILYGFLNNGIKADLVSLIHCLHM
Outline: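 Bound [125I]PYY is measured by gamma counting or liquid scintillation after vacuum filtration and ice-cold washes. Before that, membranes, 75-100 pM tracer and compound are incubated 2 hours at room temperature, with nonspecific binding defined by 1 μM PYY.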

Y2 receptor = molecular target: T2, Y2 receptor (Homo sapiens, UniProt P49146); experiment: Y2 receptor binding assay ([125I]PYY, membrane protein); settings: read-out: hNPY2 IC50
T2 sequence (P49146 1-381): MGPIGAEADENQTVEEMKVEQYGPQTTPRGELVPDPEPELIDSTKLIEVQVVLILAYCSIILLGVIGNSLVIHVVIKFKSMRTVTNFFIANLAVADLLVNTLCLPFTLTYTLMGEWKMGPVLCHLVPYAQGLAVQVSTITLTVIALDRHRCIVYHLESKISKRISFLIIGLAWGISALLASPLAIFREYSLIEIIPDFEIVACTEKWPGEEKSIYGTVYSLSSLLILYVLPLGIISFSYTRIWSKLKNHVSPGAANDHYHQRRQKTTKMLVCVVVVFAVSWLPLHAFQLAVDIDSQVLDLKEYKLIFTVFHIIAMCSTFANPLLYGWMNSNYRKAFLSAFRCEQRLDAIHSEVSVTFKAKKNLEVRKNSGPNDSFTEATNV
Outline: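 Filtration binding with membrane protein and drug dilution, 2 h at room temperature with mixing, radioactivity counted by gamma or scintillation. Y2: 25 pM [125I]PYY in Krebs-Ringer bicarbonate pH 7.4 with 0.01% BSA, nonspecific by 1 μM NPY. Y4/PP1: 50 pM [125I]hPP in HEPES-buffered saline pH 7.4 with protease inhibitors and 0.3% BSA, nonspecific by 1 μM hPP.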

[1] = [125I]PYY binding, membrane protein

Structure (SMILES)	pIC50 (Human NPY5 receptor)	pIC50 (Y2 receptor; [1])	pIC50 (Y2 receptor)
CCCC(=O)C1(c2ccccc2)CCN(CC(=O)Nc2ccc(C(=O)c3ccccc3)cc2)CC1 [Compound 74, N-(4-Benzoyl-phenyl)-2-(4-butyryl-4-phenyl-piperidin-1-yl)-acetamide]	6.40	< 5.30	
CCCC(=O)C1(c2ccccc2)CCN(CC(=O)Nc2ccc(C3CCCCC3)cc2)CC1 [Compound 75, 2-(4-Butyryl-4-phenyl-piperidin-1-yl)-N-(4-cyclohexyl-phenyl)-acetamide]	8.05		< 5.30
O=C(CN1CCCC1c1cccnc1)Nc1ccc(C(=O)c2ccccc2)cc1 (stereo not drawn) [Compound 77, N-(4-Benzoyl-phenyl)-2-(2-pyridin-3-yl-pyrrolidin-1-yl)-acetamide]	5.59	< 5.30	
O=C(CN1CCC[C@H]1CN1CCCC1)Nc1ccc(C(=O)c2ccccc2)cc1 [Compound 78, N-(4-Benzoyl-phenyl)-2-(2S-pyrrolidin-1-ylmethyl-pyrrolidin-1-yl)-acetamide]	< 5.30	< 5.30	
O=C(CN1CCC[C@H]1CN1CCCC1)Nc1ccc(C2CCCCC2)cc1 [Compound 79, N-(4-Cyclohexyl-phenyl)-2-(2S-pyrrolidin-1-ylmethyl-pyrrolidin-1-yl)-acetamide]	5.46	< 5.30	
O=C(CN1CC[C@@H](O)C1)Nc1ccc(C2CCCCC2)cc1 [Compound 80, N-(4-Cyclohexyl-phenyl)-2-(3R-hydroxy-pyrrolidin-1-yl)-acetamide]	5.85	< 5.30	
O=C(CN1CC[C@@H](O)C1)Nc1ccc(C(=O)c2ccccc2)cc1 [Compound 81, N-(4-Benzoyl-phenyl)-2-(3R-hydroxy-pyrrolidin-1-yl)-acetamide]	< 5.30	< 5.30	
O=C(CN1CCC[C@@H]1C(O)(c1ccccc1)c1ccccc1)Nc1ccc(C(=O)c2ccccc2)cc1 [Compound 82, N-(4-Benzoyl-phenyl)-2-[2R-(hydroxy-diphenyl-methyl)-pyrrolidin-1-yl]-acetamide]	< 5.30	< 5.30	
O=C(CN1CCC[C@@H]1C(O)(c1ccccc1)c1ccccc1)Nc1ccc(C2CCCCC2)cc1 [Compound 83, N-(4-Cyclohexyl-phenyl)-2-[2R-(hydroxy-diphenyl-methyl)-pyrrolidin-1-yl]-acetamide]	6.04	< 5.30	
O=C(CN1CCC[C@H]1CO)Nc1ccc(C2CCCCC2)cc1 [Compound 84, N-(4-Cyclohexyl-phenyl)-2-(2S-hydroxymethyl-pyrrolidin-1-yl)-acetamide]	6.03	< 5.30	
O=C(CN1CCC[C@H]1CO)Nc1ccc(C(=O)c2ccccc2)cc1 [Compound 85, N-(4-Benzoyl-phenyl)-2-(2S-hydroxymethyl-pyrrolidin-1-yl)-acetamide]	5.55	< 5.30	
CC(=O)C1(c2ccccc2)CCN(CC(=O)Nc2ccc(C(=O)c3ccccc3)cc2)CC1 [Compound 86, 2-(4-Acetyl-4-phenyl-piperidin-1-yl)-N-(4-benzoyl-phenyl)-acetamide]	9.00	< 5.30	
CC(=O)C1(c2ccccc2)CCN(CC(=O)Nc2ccc(C3CCCCC3)cc2)CC1 [Compound 87, 2-(4-Acetyl-4-phenyl-piperidin-1-yl)-N-(4-cyclohexyl-phenyl)-acetamide]	8.40	< 5.30	
NC[C@@H]1CCCN1CC(=O)Nc1ccc(C2CCCCC2)cc1 [Compound 91, 2-(2S-Aminomethyl-pyrrolidin-1-yl)-N-(4-cyclohexyl-phenyl)-acetamide]	6.37	< 5.30	
O=C(CN1CCC(O)C1)Nc1ccc(C2CCCCC2)cc1 (stereo not drawn) [Compound 92, N-(4-Cyclohexyl-phenyl)-2-(3-hydroxy-pyrrolidin-1-yl)-acetamide]	5.89	< 5.30	
COC[C@@H]1CCCN1CC(=O)Nc1ccc(C2CCCCC2)cc1 [Compound 93, N-(4-Cyclohexyl-phenyl)-2-(2S-methoxymethyl-pyrrolidin-1-yl)-acetamide]	6.32	< 5.30	
CC1(C)C[C@@H]2C[C@@](C)(CN2CC(=O)Nc2ccc(C3CCCCC3)cc2)C1 [Compound 94, N-(4-Cyclohexyl-phenyl)-2-((1S,5R)-1,3,3-trimethyl-6-aza-bicyclo[3.2.1]oct-6-yl)-acetamide]	5.49	< 5.30	

Structure (SMILES)	pIC50 (Human NPY5 receptor)	pIC50 (Y2 receptor; [1])	pIC50 (Y2 receptor)
O=C(CN1CCC[C@H]1C(=O)OCc1ccccc1)Nc1ccc(C2CCCCC2)cc1 [Compound 95, (2S)-1-[(4-Cyclohexyl-phenylcarbamoyl)-methyl]-pyrrolidin-2-carboxylic acid benzyl ester]	5.80	< 5.30	
COC(=O)[C@@H]1CCCN1CC(=O)Nc1ccc(C2CCCCC2)cc1 [Compound 96, (2S)-1-[(4-Cyclohexyl-phenylcarbamoyl)-methyl]-pyrrolidine-2-carboxylic acid methyl ester]	5.92	< 5.30	
O=C(CN1CCC(Br)CC1)Nc1ccc(C2CCCCC2)cc1 [Compound 97, 2-(4-Bromo-piperidin-1-yl)-N-(4-Cyclohexyl-phenyl)-acetamide]	6.82	< 5.30	
O=C(CN1C[C@H](O)C[C@H]1C(=O)O)Nc1ccc(C2CCCCC2)cc1 [Compound 98, (2S,4R)-1-[(4-Cyclohexyl-phenylcarbamoyl)-methyl]-4-hydroxy-pyrrolidine-2-carboxylic acid]	< 5.00	< 5.30	
O=C(CN1CCC[C@H]1C(=O)O)Nc1ccc(C2CCCCC2)cc1 [Compound 99, (2S)-1-[(4-Cyclohexyl-phenylcarbamoyl)-methyl]-pyrrolidine-2-carboxylic acid]	5.08	< 5.30	
NC1CCN(CC(=O)Nc2ccc(C3CCCCC3)cc2)C1 (stereo not drawn) [Compound 100, 2-(3-Amino-pyrrolidin-1-yl)-N-(4-cyclohexyl-phenyl)-acetamide]	5.62	< 5.30	
O=C(CN1CCC(O)C1)Nc1ccc(C(=O)c2ccccc2)cc1 (stereo not drawn) [Compound 103, N-(4-Benzoyl-phenyl)-2-(3-hydroxy-pyrrolidin-1-yl)-acetamide]	5.52	< 5.30	
COC[C@@H]1CCCN1CC(=O)Nc1ccc(C(=O)c2ccccc2)cc1 [Compound 104, N-(4-Benzoyl-phenyl)-2-(2S-methoxymethyl-pyrrolidin-1-yl)-acetamide]	6.31	< 5.30	
CC1(C)C[C@@H]2C[C@@](C)(CN2CC(=O)Nc2ccc(C(=O)c3ccccc3)cc2)C1 [Compound 105, N-(4-Benzoyl-phenyl)-2-((1S,5R)-1,3,3-trimethyl-6-aza-bicyclo[3.2.1]oct-6-yl)-acetamide]	5.29	< 5.30	
O=C(CN1CCC[C@H]1C(=O)OCc1ccccc1)Nc1ccc(C(=O)c2ccccc2)cc1 [Compound 106, (2S)-1-[(4-Benzoyl-phenylcarbamoyl)-methyl]-pyrrolidine-2-carboxylic acid benzyl ester]	5.52	< 5.30	
COC(=O)[C@@H]1CCCN1CC(=O)Nc1ccc(C(=O)c2ccccc2)cc1 [Compound 107, (2S)-1-[(4-Benzoyl-phenylcarbamoyl)-methyl]-pyrrolidine-2-carboxylic acid methyl ester]	5.54	< 5.30	
O=C(CN1CCC(Br)CC1)Nc1ccc(C(=O)c2ccccc2)cc1 [Compound 108, N-(4-Benzoyl-phenyl)-2-(4-bromo-piperidin-1-yl)-acetamide]	6.01	< 5.30	
O=C(CN1C[C@H](O)C[C@H]1C(=O)O)Nc1ccc(C(=O)c2ccccc2)cc1 [Compound 109, (2S,4R)-1-[(4-Benzoyl-phenylcarbamoyl)-methyl]-4-hydroxy-pyrrolidine-2-carboxylic acid]	< 5.00	< 5.30	
O=C(CN1CCC[C@H]1C(=O)O)Nc1ccc(C(=O)c2ccccc2)cc1 [Compound 110, (2S)-1-[(4-Benzoyl-phenylcarbamoyl)-methyl]-pyrrolidine-2-carboxylic acid]	5.06	< 5.30	
NC1CCN(CC(=O)Nc2ccc(C(=O)c3ccccc3)cc2)C1 (stereo not drawn) [Compound 112, 2-(3-Amino-pyrrolidin-1-yl)-N-(4-benzoyl-phenyl)-acetamide]	5.41	< 5.30	
O=C(CN1CCC[C@@H]1CO)Nc1ccc(C2CCCCC2)cc1 [Compound 113, N-(4-Cyclohexyl-phenyl)-2-(2R-hydroxymethyl-pyrrolidin-1-yl)-acetamide]	6.15	< 5.30	

— US6410792B1, “Amide derivatives and methods for using the same as selective neuropeptide Y receptor antagonists” (Bayer Corporation, priority 1997, dated 2002)
